Converted amounts (≈) assume the structure as drawn.
How the values were obtained:
[1] = test system: histone H4 acetylation; assay: Histone H4 acetylation status in PBMCs; format: in vivo, patients; conditions: for normalized H4 acetylation values, mean increase: P < 0.01
[2] = test system: histone H3 acetylation; assay: Histone H3 acetylation status in PBMCs; format: in vivo, patients; conditions: for normalized H3 acetylation values, mean increase: P < 0.01
[3] = test system: lung cancer; conditions: romidepsin monotherapy, previously treated lung cancer; cited from earlier work
[4] = phase 1 monotherapy trial; cited from earlier work
[5] = test system: NSCLC cell lines; conditions: cited from earlier work
[6] = test system: EGFR pathway components; assay: EGFR pathway components in skin biopsies; format: in vivo, patients; conditions: romidepsin monotherapy
[7] = both 8 mg/m^2 and 10 mg/m^2 dose levels, P < 0.001

SMILES: C/C=C1\NC(=O)[C@H]2CSSCC/C=C/[C@H](CC(=O)N[C@H](C(C)C)C(=O)N2)OC(=O)[C@H](C(C)C)NC1=O [romidepsin]
- normalized H4 acetylation values, mean increase ([1]; 8 mg/m^2 cohort): 3.20 ± 2.40
- normalized H4 acetylation values, mean increase ([1]; 10 mg/m^2 cohort): 2.26 ± 0.47
- effect on H4 histone acetylation [1, 7]: concomitant increase
- normalized H3 acetylation values, mean increase ([2]; 8 mg/m^2 cohort): 2.10 ± 0.71
- normalized H3 acetylation values, mean increase ([2]; 10 mg/m^2 cohort): 2.18 ± 1.09
- effect on H3 histone acetylation [2, 7]: concomitant increase
- patients who achieved stable disease [3]: 9 of 18
- maximum tolerated dose of romidepsin (in combination with erlotinib 150 mg orally daily, Days 1, 8, and 15 every 28 days, IV, with multi-drug antiemetic prophylaxis): 8 mg/m^2
- dose-limiting toxicities [4]: grade 3 thrombocytopenia and fatigue
- IC50 against NSCLC cell lines in vitro [5]: 2.25 ng/mL (≈ 4.16 nM)
- effect on expression of EGFR, MAPK, or phospho-MAPK [6]: no discernible effect
- effect on expression of phosphorylated EGFR ([6]; day 3 pre-erlotinib, P = 0.09): trend toward decreased expression

SMILES: C#Cc1cccc(Nc2ncnc3cc(OCCOC)c(OCCOC)cc23)c1 [erlotinib]
- Acneiform Rash, Possible Relationship to Erlotinib (human, in vivo): Y (7/7)
- Acute kidney injury, Possible Relationship to Erlotinib (human, in vivo): Y (1/1)
- Anorexia, Possible Relationship to Erlotinib (human, in vivo): Y (9/9)
- Diarrhea, Possible Relationship to Erlotinib (human, in vivo): Y (9/11)
- Dry Skin, Possible Relationship to Erlotinib (human, in vivo): Y (2/2)
- Fatigue, Possible Relationship to Erlotinib (human, in vivo): Y (9/14)
- Mouth Blister, Possible Relationship to Erlotinib (human, in vivo): Y (4/4)
- Nausea, Possible Relationship to Erlotinib (human, in vivo): Y (4/14)
- Vomiting, Possible Relationship to Erlotinib (human, in vivo): Y (5/14)
- Weight Loss, Possible Relationship to Erlotinib (human, in vivo): Y (2/3)
- ↑ Glucose, Possible Relationship to Erlotinib (human, in vivo): Y (1/3)
- ↓ Hgb/Anemia, Possible Relationship to Erlotinib (human, in vivo): Y (2/5)
- Dyspepsia, Possible Relationship to Erlotinib (in vivo): N
- Sinus tachycardia, Possible Relationship to Erlotinib (in vivo): N
- ↓ Potassium, Possible Relationship to Erlotinib (in vivo): N
